“And” between values parts separate entries of the source, which are not always exact repeats. Identical values can stand only once.
Assays:
[1] = system: narcolepsy with cataplexy; test: Epworth Sleepiness Scale (ESS) score in a patient with narcolepsy with cataplexy; format: in vivo, human; settings: single patient, 5 mg at 8 am and 5 mg at 1 pm each day
Procedure: (§1) A person is diagnosed as suffering from narcolepsy with cataplexy. They are given mazindol and instructed to take 5 mg of mazindol at 8 am and 5 mg of mazindol at 1 pm each day for three weeks. The patient is evaluated prior to treatment, and weekly to determine the MWT score, the number of cataplexy attacks, the PGI-C score, the HAM-D score, the ESS score, the NSAQ score, and the ability to concentrate on the NSAQ. After one week of treatment, the ESS score has decreased by 10-30%.
as §1, with “30-60%.” for “10-30%.”
as §1, with “After one week of treatment, the ESS score has decreased by 10-30%.” left out

[2] = system: narcolepsy with cataplexy; test: Maintenance of Wakefulness Test (MWT) score in a patient with narcolepsy with cataplexy; format: in vivo, human; settings: single patient, 5 mg at 8 am and 5 mg at 1 pm each day
Procedure: (§2) A person is diagnosed as suffering from narcolepsy with cataplexy. They are given mazindol and instructed to take 5 mg of mazindol at 8 am and 5 mg of mazindol at 1 pm […] After one week of treatment, the MWT score has increased by 10-30%.
as §1, with “treatment, the MWT score has” for “treatment, the ESS score has”, “score has increased by 30-60%.” for “score has decreased by 10-30%.”, “increased by 30-60%.” for “decreased by 10-30%.”
(§3) A person is diagnosed as suffering from narcolepsy with cataplexy. […] The patient is evaluated prior to treatment, and weekly to determine the MWT score, the number of cataplexy attacks, the PGI-C score, the HAM-D score, the ESS score, the NSAQ score, and the ability to concentrate on the NSAQ. […]
as §3

[3] = human patients; without controlled release coating; cited from earlier work
[4] = system: narcolepsy with cataplexy; test: Number of cataplexy attacks in a patient with narcolepsy with cataplexy; format: in vivo, human; settings: single patient, 5 mg at 8 am and 5 mg at 1 pm each day
Procedure: as §1, with “number of cataplexy attacks have” for “ESS score has”
as §1, with “number of cataplexy attacks have” for “ESS score has”, “30-60%.” for “10-30%.”
A person is diagnosed as suffering from narcolepsy with cataplexy. […]
as §3

[5] = system: narcolepsy with cataplexy; test: Hamilton Depression Rating Scale (HAM-D) score in a patient with narcolepsy with cataplexy; format: in vivo, human; settings: single patient; 5 mg at 8 am and 5 mg at 1 pm each day; after three weeks of treatment
Procedure: as §2, with “three weeks” for “one week”, “HAM-D” for “MWT”, “decreased” for “increased”
(§4) A person is diagnosed as suffering from narcolepsy with cataplexy. They are given mazindol and instructed to take 5 mg of mazindol at 8 am and 5 mg of mazindol at 1 pm each day for three weeks. The patient is evaluated prior to treatment, and weekly to determine the MWT score, the number of cataplexy attacks, the PGI-C score, the HAM-D score, the ESS score, the NSAQ score, and the ability to concentrate on the NSAQ. After three weeks of treatment, the HAM-D score has decreased by 30-60%.
as §4, with “60-100%.” for “30-60%.”

OC1(c2ccc(Cl)cc2)c2ccccc2C2=NCCN21 (centres unmarked) [mazindol]
10-30% and 30-60% and 60-100%: decrease in ESS score ([1]; after one week of treatment) | decrease in ESS score ([1]; after three weeks of treatment) | increase in MWT score ([2]; after one week of treatment) | increase in MWT score ([2]; after three weeks of treatment) | decrease in the number of cataplexy attacks ([4]; after one week of treatment) | decrease in the number of cataplexy attacks ([4]; after three weeks of treatment) | decrease in HAM-D score [5]
2 to 4 h: time to reach a maximum plasma concentration [3]

Reference: patent US20250360107A1, “USE OF MAZINDOL TO TREAT NERVOUS SYSTEM DISORDERS” (AXSOME THERAPEUTICS, INC., priority 2022, published 2025)
